Measured values: PubChem BioAssay AID330 (DTP/NCI, 2004)
Values joined by “and” are separate entries in the source; they are usually repeats but may differ in a detail not shown here. Identical values can stand only once. Inconclusive results and toxic doses are left out. The calls were made as follows: active = survival T/C of 150% or more; inactive = T/C below 125% in these data.

Tested on: P388 leukemia ip, CD2F1 mice, survival T/C
Test: NCI In Vivo Anticancer Drug Screen. Data for tumor model P388 Leukemia (intraperitoneal) in CD2F1 (CDF1) mice
Conditions: endpoint: median survival time, higher = longer survival
How it was run: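 Mice carrying the transplanted tumor received test compound or vehicle. Survival was recorded in each group, and the value is the treated-group measurement divided by that of the vehicle-treated control group.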

[1] = dose: 50.0 mg/kg/injection, schedule: Q01DX009 (ip), vehicle: saline with Tween-80
[2] = dose: 100.0 mg/kg/injection, schedule: Q01DX009 (ip), vehicle: saline with Tween-80
[3] = dose: 200.0 mg/kg/injection, schedule: Q01DX009 (ip), vehicle: saline with Tween-80
[4] = dose: 100.0 mg/kg/injection, schedule: Q01DX005 (ip), vehicle: saline with Tween-80
[5] = dose: 60.0 mg/kg/injection, schedule: Q01DX005 (ip), vehicle: saline with Tween-80
[6] = dose: 120.0 mg/kg/injection, schedule: Q01DX005 (ip), vehicle: saline with Tween-80
[7] = dose: 50.0 mg/kg/injection, schedule: Q01DX005 (ip), vehicle: Klucel (hydroxypropylcellulose) (HPC)
[8] = dose: 100.0 mg/kg/injection, schedule: Q01DX005 (ip), vehicle: Klucel (hydroxypropylcellulose) (HPC)
[9] = dose: 60.0 mg/kg/injection, schedule: Q01DX005 (ip), vehicle: saline
[10] = dose: 120.0 mg/kg/injection, schedule: Q01DX005 (ip), vehicle: saline
[11] = dose: 50.0 mg/kg/injection, schedule: Q01DX009 (ip), vehicle: Klucel (hydroxypropylcellulose) (HPC)
[12] = dose: 100.0 mg/kg/injection, schedule: Q01DX009 (ip), vehicle: Klucel (hydroxypropylcellulose) (HPC)
[13] = dose: 25.0 mg/kg/injection, schedule: Q01DX005 (ip), vehicle: Klucel (hydroxypropylcellulose) (HPC)
[14] = dose: 50.0 mg/kg/injection, schedule: Q01DX009 (ip), vehicle: saline
[15] = dose: 240.0 mg/kg/injection, schedule: Q01DX005 (ip), vehicle: saline with Tween-80
[16] = dose: 200.0 mg/kg/injection, schedule: Q01DX009 (ip), vehicle: Klucel (hydroxypropylcellulose) (HPC)

Measured: T/C

CSC(=S)n1nc(-c2ccccc2)c(N=Nc2cccc(C)c2C)c1-c1ccccc1
inactive: dose: 100.0 mg/kg/injection, schedule: Q04DX002 (ip), vehicle: saline with Tween-80 90 % of control | dose: 200.0 mg/kg/injection, schedule: Q04DX002 (ip), vehicle: saline with Tween-80 89 % of control | dose: 400.0 mg/kg/injection, schedule: Q04DX002 (ip), vehicle: saline with Tween-80 102 % of control

CCOC(=O)C1=C(NC(=O)Nc2ccccc2)N(C(=O)Nc2ccccc2)CCC1
inactive: dose: 100.0 mg/kg/injection, schedule: Q04DX003 (ip), vehicle: Klucel (hydroxypropylcellulose) (HPC) 100 % of control | dose: 200.0 mg/kg/injection, schedule: Q04DX003 (ip), vehicle: Klucel (hydroxypropylcellulose) (HPC) 99 % of control | dose: 400.0 mg/kg/injection, schedule: Q04DX003 (ip), vehicle: Klucel (hydroxypropylcellulose) (HPC) 102 % of control

CC1=NN(C(=O)c2ccncc2)C(=O)C1N=Nc1ccc(C)cc1 (stereo unspecified)
inactive: [1] 105 % of control | [2] 101 % of control | [3] 99 % of control

CS(=O)(=O)OCC1CCSC1=O (stereo unspecified)
inactive: [1] 100 % of control | [2] 106 % of control | [3] 108 % of control

CN(C)N=Nc1cccc(C(F)(F)F)c1
inactive: dose: 25.0 mg/kg/injection, schedule: Q01DX008 (ip), vehicle: saline with Tween-80 104 % of control | dose: 50.0 mg/kg/injection, schedule: Q01DX007 (ip), vehicle: saline 120 % of control | dose: 50.0 mg/kg/injection, schedule: Q01DX008 (ip), vehicle: saline with Tween-80 101 % of control | dose: 100.0 mg/kg/injection, schedule: Q01DX008 (ip), vehicle: saline with Tween-80 101 % of control

OCCCCC/C=C/CCCCCCC1C=CCC1 (stereo unspecified)
inactive: dose: 100.0 mg/kg/injection, schedule: Q01DX001 (ip), vehicle: saline 99 % of control | dose: 200.0 mg/kg/injection, schedule: Q01DX001 (ip), vehicle: saline 99 % of control | dose: 400.0 mg/kg/injection, schedule: Q01DX001 (ip), vehicle: saline 99 % of control

CCB1OC2OC3C4OB(CC)OC4OC3C2O1 (stereo unspecified)
inactive: dose: 50.0 mg/kg/injection, schedule: Q01DX005 (ip), vehicle: saline with Tween-80 103 % of control | [4] 103 % of control | dose: 200.0 mg/kg/injection, schedule: Q01DX005 (ip), vehicle: saline with Tween-80 103 % of control

Cc1ccc([C@H]2N[C@@H]2c2ccccn2)cc1
inactive: [5] 98 % of control | [6] 103 % of control

CCN(CC)CCO[C@H]1CC[C@@]2(C)C(=CC[C@@H]3[C@@H]2CC[C@]2(C)C(=O)CC[C@@H]32)C1
inactive: dose: 5.0 mg/kg/injection, schedule: Q01DX009 (ip), vehicle: saline with Tween-80 104 % of control | dose: 5.0 mg/kg/injection, schedule: Q04DX003 (ip), vehicle: saline with Tween-80 91 % of control | dose: 10.0 mg/kg/injection, schedule: Q01DX009 (ip), vehicle: saline with Tween-80 91 % of control | dose: 10.0 mg/kg/injection, schedule: Q04DX003 (ip), vehicle: saline with Tween-80 91 % of control | dose: 20.0 mg/kg/injection, schedule: Q01DX009 (ip), vehicle: saline with Tween-80 95 % of control | dose: 20.0 mg/kg/injection, schedule: Q04DX003 (ip), vehicle: saline with Tween-80 100 % of control

CO[C@@H]1C2=CC=CC=C[C@H]2n2c(=O)n(-c3ccccc3)c(=O)n21
inactive: [7] 102 % of control | [8] 103 % of control

COC(C(=O)O)(c1ccccc1)C(F)(F)F (stereo unspecified)
inactive: [9] 100 % of control | [10] 109 % of control

COc1cc(O)ccc1C(=S)SC
inactive: dose: 100.0 mg/kg/injection, schedule: Q04DX003 (ip), vehicle: saline with Tween-80 106 % of control | dose: 200.0 mg/kg/injection, schedule: Q04DX003 (ip), vehicle: saline with Tween-80 99 % of control

Cc1nnc(CN2CCOCC2)n1-c1ccc(Cl)cc1C(=O)c1ccccc1
inactive: dose: 25.0 mg/kg/injection, schedule: Q01DX009 (ip), vehicle: Klucel (hydroxypropylcellulose) (HPC) 86 % of control | [11] 96 % of control | [12] 105 % of control

Cc1noc(NS(=O)(=O)c2ccc(N=Nc3cc(N=Nc4ccc(S(=O)(=O)Nc5onc(C)c5C)cc4)c4c(NC(=O)C(Cl)Cl)cccc4c3OC(=O)C(Cl)Cl)cc2)c1C (tested in a mixture with another compound)
inactive: [1] 100 % of control and 106 % of control | [2] 104 % of control and 106 % of control

CC1C(=O)C23CC1CCC2C12COC(O)C1C(C)(C)C(O)CC2OC3=O (stereo unspecified)
inactive: dose: 12.5 mg/kg/injection, schedule: Q01DX005 (ip), vehicle: Klucel (hydroxypropylcellulose) (HPC) 100 % of control | [13] 94 % of control | [7] 100 % of control | dose: 61.5 mg/kg/injection, schedule: Q01DX005 (ip), vehicle: Klucel (hydroxypropylcellulose) (HPC) 96 % of control | [8] 102 % of control | dose: 123.0 mg/kg/injection, schedule: Q01DX005 (ip), vehicle: Klucel (hydroxypropylcellulose) (HPC) 106 % of control | dose: 246.0 mg/kg/injection, schedule: Q01DX005 (ip), vehicle: Klucel (hydroxypropylcellulose) (HPC) 98 % of control

Cc1ccc(C)c(CN(CCO)CCO)c1
inactive: [9] 109 % of control | [10] 102 % of control

Nc1cccc2c1-c1ccccc1C2=O
inactive: dose: 6.25 mg/kg/injection, schedule: Q01DX005 (ip), vehicle: saline with Tween-80 98 % of control | dose: 12.5 mg/kg/injection, schedule: Q01DX005 (ip), vehicle: saline with Tween-80 98 % of control | dose: 25.0 mg/kg/injection, schedule: Q01DX005 (ip), vehicle: saline with Tween-80 92 % of control | [4] 92 % of control

CC(=O)c1ccc2c3c(cccc13)C(=O)OC2=O
inactive: [13] 100 % of control | [7] 100 % of control and 101 % of control | [8] 102 % of control and 97 % of control | dose: 200.0 mg/kg/injection, schedule: Q01DX005 (ip), vehicle: Klucel (hydroxypropylcellulose) (HPC) 104 % of control

NC(COc1ccccc1)Cc1ccccc1 (stereo unspecified)
inactive: dose: 12.5 mg/kg/injection, schedule: Q04DX003 (ip), vehicle: saline 100 % of control | dose: 25.0 mg/kg/injection, schedule: Q04DX003 (ip), vehicle: saline 100 % of control | dose: 50.0 mg/kg/injection, schedule: Q04DX003 (ip), vehicle: saline 102 % of control | dose: 100.0 mg/kg/injection, schedule: Q04DX003 (ip), vehicle: saline 99 % of control

CC1COS(=O)O1 (stereo unspecified)
inactive: dose: 20.0 mg/kg/injection, schedule: Q01DX009 (ip), vehicle: saline sonified 109 % of control | dose: 40.0 mg/kg/injection, schedule: Q01DX009 (ip), vehicle: saline sonified 109 % of control

NCCc1cc(O)c(O)cc1O
inactive: dose: 6.25 mg/kg/injection, schedule: Q01DX009 (ip), vehicle: saline 101 % of control and 105 % of control | dose: 12.5 mg/kg/injection, schedule: Q01DX009 (ip), vehicle: saline 107 % of control and 97 % of control | dose: 25.0 mg/kg/injection, schedule: Q01DX009 (ip), vehicle: saline 101 % of control and 109 % of control | [14] 100 % of control and 111 % of control

Nc1ncnc(N)c1NC(=O)c1cc(Cl)c(OCc2ccccc2)c(Cl)c1
inactive: [5] 101 % of control | [6] 95 % of control | [15] 94 % of control

O=C(CCSc1ncnc2nc[nH]c12)c1ccccc1
inactive: [14] 94 % of control | dose: 100.0 mg/kg/injection, schedule: Q01DX009 (ip), vehicle: saline 92 % of control | dose: 200.0 mg/kg/injection, schedule: Q01DX009 (ip), vehicle: saline 86 % of control

N#CC1Sc2ccccc2N1C(=O)OCc1ccccc1 (stereo unspecified)
inactive: [5] 93 % of control | [6] 92 % of control | [15] 91 % of control

CCOc1nnc(-c2ccc(OC)c(OC)c2)o1
inactive: dose: 12.5 mg/kg/injection, schedule: Q01DX009 (ip), vehicle: other 90 % of control | dose: 100.0 mg/kg/injection, schedule: Q01DX009 (ip), vehicle: other 106 % of control | dose: 200.0 mg/kg/injection, schedule: Q01DX009 (ip), vehicle: other 90 % of control

CCOC(=O)CNC(=O)Oc1ccc(Cl)cn1
inactive: [11] 102 % of control | [12] 97 % of control | [16] 102 % of control

CS(=O)(=O)/C=C/c1cc2ccccc2[nH]1
inactive: [11] 89 % of control | [12] 101 % of control | [16] 104 % of control
